Experimental data: US10149809B2, “Skin aging inhibitor and concentrate of resveratrol 3-O-α-glucoside” (priority 2014, dated 2018)
≈ marks a conversion by molar mass, not a printed value.

Key:
[1] = test system: skin model (MEL-312B; MatTek); test: Melanogenesis suppressing effect in skin model (amount of melanin, visual observation); assay type: cell-based; conditions: 0.2 wt % in PBS, 50 μL, 16 days; PBS control group = 100%
Experimental: Resveratrol 3-O-α-glucoside, resveratrol (Tokyo Chemical Industry Co., Ltd.), or resveratrol 3-O-β-glucoside (Tokyo Chemical Industry Co., Ltd.) was prepared into a 0.2 wt % solution or suspension with the addition of PBS, and the resulting solution or suspension was used as a test substance. A skin model (MEL-312B; MatTek) was used, and 50 μL of the test substance was added to the horny layer side of the skin model and cultured in a special medium (EPI-100NMM-113; MatTek) at 37° C. for 16 days. On days 2, 4, 7, 9, 11, and 14, the medium and the test substance were replaced with fresh ones. As a control group, the same operation was performed using PBS instead of the test substance.
After 16 days of culture, the skin model was visually observed, and the amount of melanin in the skin model was evaluated. The amount of melanin was measured using the following method. Initially, the collected skin model was subjected to enzymatic degradation by proteinase-K, and was subsequently homogenated in PBS containing 1% triton X-100. Melanin was then extracted by washing with 10% TCA and ethanol. Next, the extracted melanin was dissolved in 0.5 mL of 1N-NaOH containing 10% DMSO at 80° C. for 2 hours, and the amount of melanin was quantified by measuring absorbance at 470 nm.
Resveratrol 3-O-α-glucoside was prepared into a 0.2 wt % solution, a 0.1 wt % solution, or a 0.01 wt % solution with the addition of PBS. The resulting solution was used as a test substance, and the melanogenesis suppressing effect was evaluated using the same method as that of Example 1 above. […]

[2] = test system: skin model (EPI-200X; MatTek); assay type: in vitro ADME, human; conditions: human, 20 h, 0.2 wt %
Experimental: Using a three-dimensional human skin model, permeabilities of resveratrol 3-O-α-glucoside and resveratrol into the skin model when administered via the skin surface were compared.
Resveratrol 3-O-α-glucoside or resveratrol (Tokyo Chemical Industry Co., Ltd.) was prepared into a 0.2 wt % solution or suspension with the addition of PBS, and the resulting solution was used as a test substance. The skin model (EPI-200X; MatTek) was loaded into a special fixture (EPI-100-FIX; MatTek), and placed in the 6-well plate of the receiver. One-hundred microliters of the test substance were added to the horny layer side, and 5 mL of PBS was added to the receiver side. After being allowed to stand at 37° C. for 20 hours, the skin model was collected, and the surface of the skin model was washed well with PBS. The skin model after being washed was homogenized in PBS. After the homogenate was centrifuged, resveratrols in the supernatant were quantified using HPLC under the same conditions as described in Production Example 1 above, and the amount of resveratrols was converted into the equivalent of agly cones.

[3] = Solubility in solvent containing dipropylene glycol; assay type: physicochemical; conditions: 25 °C, water, thermodynamic from solid
Experimental: (§1) Approximately 40 mg each of resveratrol 3-O-α-glucoside, resveratrol (Tokyo Chemical Industry Co., Ltd.), and resveratrol 3-O-β-glucoside (Tokyo Chemical Industry Co., Ltd.) was weighed, approximately 70 mg of a solvent (whose composition is shown in Table 18) containing ethanol (Wako Pure Chemical Industries, Ltd.) was added thereto, and the mixture was soaked in a water bath at 25° C. under light-tight conditions, and incubated for 15 hours with occasional stirring. After 15 hours, each of the samples was filtered through a 0.45 μm centrifugal filter, and then the concentration of each of the components in the filtrate was analyzed using HPLC under the same conditions as those described in Production Example 1 above. The dissolved concentration (w/v %) at 25° C. was thus determined.
The solubility of resveratrol 3-O-α-glucoside was evaluated under the same conditions as those described in Example 18 above, except that a solvent (whose composition is shown in Table 22) containing dipropylene glycol (Asahi Glass Co., Ltd.) was used.

[4] = Solubility in water; assay type: physicochemical; conditions: water
Experimental: as §1, with “5” for “40”, “1 mL” for “70 mg”, “water” for “a solvent (whose composition is shown in Table 18) containing ethanol (Wako Pure Chemical Industries, Ltd.)”, “20” for “15”, “%) in water” for “%)”

[5] = Storage stability in 30 vol % aqueous ethanol (coloration, residual content); assay type: physicochemical; conditions: 2 mM in 30 vol % aqueous ethanol, 40° C., light-tight, 6 months; for Residual Content (%): HPLC
Experimental: Each of resveratrol 3-O-α-glucoside (produced in Production Example 1), resveratrol (Tokyo Chemical Industry Co., Ltd.), and resveratrol 4′-O-α-glucoside (produced in Production Example 1) was dissolved in a 30 vol % aqueous solution of ethanol to a concentration of 2 mM, and the solution was stored at 40° C. under light-tight conditions. The coloration of the solution after being stored for 6 months was visually observed. Further, absorbances at 430 nm of the solution before and after the storage were measured, and the residual amount of each of the components in the solution was analyzed using HPLC. HPLC was performed under the same conditions as those described in Production Example 1.

SMILES | Relative Amount of Melanin [1] | Concentration in the Skin Model (Value Converted into the Equivalent of Aglycones, μg/cm^2) [2] | solubility thermodynamic at 15 h [3] | solubility thermodynamic at 20 h ([4]; 25 °C, thermodynamic from solid) | Coloration: Difference between Absorbances at 430 nm (Δ A 430) before and after Storage [5] | Coloration: Visual Observation [5] | Residual Content (%) [5] | Dissolved Concentration (μg/mL) in Water ([4]; 25° C., 20 hours)
Oc1ccc(C=Cc2cc(O)cc(O)c2)cc1 [Resveratrol, resveratrol] | 63% | 7.5 μg/cm^2 | 30 µg/mL (≈ 131 µM) | 30 µg/mL (≈ 131 µM) | 1.36 | strongly | 60% | 
OC[C@H]1O[C@H](Oc2ccc(C=Cc3cc(O)cc(O)c3)cc2)[C@H](O)[C@@H](O)[C@@H]1O [Resveratrol 4′-O-α-Glucoside, resveratrol 4′-O-α-glucoside] |  |  |  |  | 0.21 | slightly colored | 86% | 150 µg/mL
